# Laboratory results from patent US20240239790A1, “7-Morpholino-1,6-Naphthyridin-5-yl Derivatives and Pharmaceutical Compositions Thereof Useful as DNA-PK Inhibitor” (adMare Therapeutics Society, priority 2021, published 2024).
# Read-outs that look alike come from different tables or passages of the source.
# Tests used:
# [1] = Pharmacokinetic study in male Sprague-Dawley rats (IV and PO), plasma; type: in vivo, rat; details: for AUC(0-t) / Cmax at 5 min / half-life / AUC(0-inf): male, Sprague-Dawley; for AUC(0-t) / Cmax at 5 min / half-life / AUC(0-inf) / AUC—% Extrap—obs / Cl_obs / Vz_obs: rat plasma; for AUC(0-inf): read-out: AUCINF—obs; for F: rat
# Procedure: Pharmacokinetic studies were conducted to estimate plasma concentrations obtained after oral gavage (PO) and intravenous (IV) single administration of compounds administered to male Sprague-Dawley rats. Six (6) rats were administered for each compound, route and dose, and plasma was collected at 12 timepoints over a 24 hr period for IV, and 12 timepoints over a 48 hr period for PO. Note that plasma was collected from only 3 animals per timepoint (n=3 for timepoints up to 10 hours, and n=3 for timepoints from 16 h to end of study). Dosing volumes were 5 mL/kg for IV and 10 mL/kg for PO gavage. IV compounds for administration were in solutions, whereas PO compounds were in solution or suspension.
# (§1) The in-vivo study plasma samples were analyzed using Ultra Performance Liquid Chromatography (UPLC) with tandem mass spectrometry (MS/MS) detection in multiple reaction monitoring (MRM) mode. A generic bioanalytical method involving plasma sample extraction and cleanup by protein precipitation with acetonitrile was used followed by UPLC-MS/MS analysis.
# (§2) A brief example of a generic bioanalytical UPLC-MS/MS method used for analysis of compounds in the in-vivo study plasma samples is as follows. Plasma samples were spiked with internal standard prior to extraction and cleanup by protein precipitation with ice cold acetonitrile containing 0.1% (v/v) ammonium hydroxide at a ratio of 3:1 (solvent:plasma) and centrifuged at 18213 rcf for 15 minutes at 4° C. to pellet precipitates. Aliquots of supernatants were transferred to a 96-well plate and evaporated to dryness at 40° C. under a stream of nitrogen gas. Samples were reconstituted in 50:50 acetonitrile/10 mM ammonium acetate buffer pH 8, mixed thoroughly and analyzed using Ultra Performance Liquid Chromatography (UPLC) with tandem mass spectrometry (MS/MS) detection in multiple reaction monitoring (MRM) mode. Matrix-matched calibration standards and quality control (QC) samples were prepared in naïve C57Bl/6 mouse plasma. The UPLC column used was Waters Acquity UPLC BEH C18 1.7 um, 2.1 mm×50 mm (with guard column). The UPLC mobile phase consisted of: Mobile phase A: 10 mM ammonium acetate in Water pH 8, and Mobile phase B: Acetonitrile. Separation was accomplished with a linear gradient of 5% mobile phase B to 95% mobile phase B in 2 min, and a flow rate of 0.35 mL/min. The MS/MS data acquisition was accomplished using 3 MRM Transitions in ESI+ mode. Parent ion mass 508.37 m/z-to-Daughter ions (m/z) 117.05, 232.13 and 270.22. The quantitation of concentrations in test samples was achieved by matrix-matched calibration with normalization using an internal standard. Data acquisition and analysis were performed using Waters MassLynx software with TargetLynx application manager.
# (§3) Estimation of PK parameters was performed using independent noncompartmental model method by PHOENIX WinNonlin software.
# [2] = Pharmacokinetic study in male Beagle dogs (IV and PO), plasma; type: in vivo, dog; details: for AUC—% Extrap—obs / Cl_obs / Vz_obs / AUC(0-t) / half-life / AUC(0-inf) / Cmax: dog plasma; for AUC(0-t) / half-life / AUC(0-inf) / Cmax: male, Beagle; for AUC(0-inf): read-out: AUCINF—obs; for Cmax: read-out: Cmax (5 min)
# Procedure: Pharmacokinetic studies were conducted to estimate plasma concentrations obtained after oral gavage (PO) and intravenous (IV) single administration of compounds administered to separate groups of male Beagle dogs. Three (3) dogs were administered a compound via the intravenous (IV) route at 3 mg/kg and 2.5 mL/kg, and plasma was collected at 12 timepoints over a 24-hour period. Following a 7 days washout period, the same dogs were administered the same compound via PO at 10 mg/kg and 5 mL/kg, and plasma was collected at 12 timepoints over a 48-hour period.
# as §1, §2, §3
# [3] = tested on: FaDu tumour xenograft; experiment: Tumour Growth Delay, FaDu tumour xenograft-bearing animals, compound ± radiation (TGD-ER); type: in vivo; details: PO
compound,measurement,setting,value
"O=C(COc1cnc(N[C@H]2CC[C@@H](Oc3nc(N4CCOCC4)cc4ncccc34)CC2)nc1)N1CCOCC1 [Compound 61, 1-Morpholino-2-((2-(((1s,4s)-4-((7-morpholino-1,6-naphthyridin-5-yl)oxy)cyclohexyl)amino)pyrimidin-5-yl)oxy)ethan-1-one]",AUC(0-t),"[1]; IV, 3 mg/kg",0.912 µg·h/mL
same,Cmax at 5 min,"[1]; IV, 3 mg/kg",1.6 µg/mL
same,half-life,"[1]; IV, 3 mg/kg",1.49 h
same,AUC(0-inf),"[1]; IV, 3 mg/kg",0.913 µg·h/mL
same,AUC(0-t),"[1]; PO, 3 mg/kg",0.241 µg·h/mL
same,Cmax at 5 min,"[1]; PO, 3 mg/kg",0.0874 µg/mL
same,half-life,"[1]; PO, 3 mg/kg",5.68 h
same,AUC(0-inf),"[1]; PO, 3 mg/kg",0.33 µg·h/mL
same,AUC(0-t),"[1]; PO, 10 mg/kg",1.07 µg·h/mL
same,Cmax at 5 min,"[1]; PO, 10 mg/kg",0.235 µg/mL
same,half-life,"[1]; PO, 10 mg/kg",2.64 h
same,AUC(0-inf),"[1]; PO, 10 mg/kg",1.22 µg·h/mL
same,AUC(0-t),"[1]; PO, 30 mg/kg",5.76 µg·h/mL
same,Cmax at 5 min,"[1]; PO, 30 mg/kg",0.655 µg/mL
same,half-life,"[1]; PO, 30 mg/kg",13.7 h
same,AUC(0-inf),"[1]; PO, 30 mg/kg",15.8 µg·h/mL
same,AUC—% Extrap—obs,"[1]; IV, 3 mg/kg",0.10%
same,Cl_obs,"[1]; IV, 3 mg/kg",3.28566 L/h/kg
same,Vz_obs,"[1]; IV, 3 mg/kg",7.05679 L/kg
same,AUC—% Extrap—obs,"[1]; PO, 3 mg/kg",26.80%
same,Cl_obs,"[1]; PO, 3 mg/kg",9.09486 L/h/kg
same,Vz_obs,"[1]; PO, 3 mg/kg",74.5443 L/kg
same,AUC—% Extrap—obs,"[1]; PO, 10 mg/kg",12.39%
same,Cl_obs,"[1]; PO, 10 mg/kg",8.17838 L/h/kg
same,Vz_obs,"[1]; PO, 10 mg/kg",31.192 L/kg
same,AUC—% Extrap—obs,"[1]; PO, 30 mg/kg",63.5%
same,Cl_obs,"[1]; PO, 30 mg/kg",1.89991 L/h/kg
same,Vz_obs,"[1]; PO, 30 mg/kg",37.65453 L/kg
same,F,"[1]; PO, 3 mg/kg",26%
same,F,"[1]; PO, 10 mg/kg",35%
same,F,"[1]; PO, 30 mg/kg",63%
same,AUC—% Extrap—obs,"[2]; IV, 3 mg/kg",0.79%
same,Cl_obs,"[2]; IV, 3 mg/kg",0.86029 L/h/kg
same,Vz_obs,"[2]; IV, 3 mg/kg",4.48058 L/kg
same,AUC—% Extrap—obs,"[2]; PO, 10 mg/kg",0.78%
same,Cl_obs,"[2]; PO, 10 mg/kg",2.14805 L/h/kg
same,Vz_obs,"[2]; PO, 10 mg/kg",11.52897 L/kg
same,F,"[2]; dog, PO, 10 mg/kg",46%
same,AUC(0-t),"[2]; IV, 3 mg/kg",3.48 µg·h/mL
same,half-life,"[2]; IV, 3 mg/kg",3.64 h
same,AUC(0-inf),"[2]; IV, 3 mg/kg",3.5 µg·h/mL
same,Cmax,"[2]; IV, 3 mg/kg",3.7 µg/mL
same,AUC(0-t),"[2]; PO, 10 mg/kg",5.3 µg·h/mL
same,half-life,"[2]; PO, 10 mg/kg",4.39 h
same,AUC(0-inf),"[2]; PO, 10 mg/kg",5.34 µg·h/mL
same,Cmax,"[2]; PO, 10 mg/kg",1.07 µg/mL
same,TGD-ER Range Score,[3]; (30 mpk + 2 Gy) Q5D,A (values>2.5=A)
same,TGD-ER Range Score,[3]; (30 mpk) Q5D,C (<1=C)
